For eleven compounds, DC50 and Dmax results are on record in patent publication US11427548B2 (Arvinas Operations, Inc., priority 2015, dated 2022).

Molecules are shown by their SMILES. Where two headings read alike, the source gives them in different places.

In the test the target is T1, Androgen Receptor (Homo sapiens, UniProt P10275).
T1 construct: endogenous in cells; host or cells: VCaP cells
T1 sequence (P10275 1-920): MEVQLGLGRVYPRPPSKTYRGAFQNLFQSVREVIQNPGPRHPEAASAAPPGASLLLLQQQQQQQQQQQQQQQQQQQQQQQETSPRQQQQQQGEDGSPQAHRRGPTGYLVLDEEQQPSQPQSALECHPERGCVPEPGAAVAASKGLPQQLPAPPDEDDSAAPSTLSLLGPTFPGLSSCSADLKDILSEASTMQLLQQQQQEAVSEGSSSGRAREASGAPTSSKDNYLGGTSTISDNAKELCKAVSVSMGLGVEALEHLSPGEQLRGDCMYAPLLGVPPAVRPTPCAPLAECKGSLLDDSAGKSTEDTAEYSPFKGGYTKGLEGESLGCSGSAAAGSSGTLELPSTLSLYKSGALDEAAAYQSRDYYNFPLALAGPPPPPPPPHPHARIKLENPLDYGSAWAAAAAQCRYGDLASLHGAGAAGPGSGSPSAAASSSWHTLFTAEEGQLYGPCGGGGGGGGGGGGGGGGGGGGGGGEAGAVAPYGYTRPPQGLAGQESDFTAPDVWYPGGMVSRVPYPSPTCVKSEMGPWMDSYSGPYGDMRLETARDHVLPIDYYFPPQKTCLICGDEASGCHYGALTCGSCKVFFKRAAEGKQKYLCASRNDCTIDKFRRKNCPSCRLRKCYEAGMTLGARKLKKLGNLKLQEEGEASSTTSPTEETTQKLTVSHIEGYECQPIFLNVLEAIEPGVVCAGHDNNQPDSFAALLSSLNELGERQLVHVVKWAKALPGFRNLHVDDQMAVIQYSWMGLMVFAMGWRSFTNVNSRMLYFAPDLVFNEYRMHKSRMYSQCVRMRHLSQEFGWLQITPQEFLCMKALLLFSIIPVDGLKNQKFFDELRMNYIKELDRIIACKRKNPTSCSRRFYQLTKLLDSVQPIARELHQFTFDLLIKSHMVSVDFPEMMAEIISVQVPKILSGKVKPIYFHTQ
Nature of the test: Androgen Receptor ELISA assay (PathScan AR ELISA) in VCaP cells: AR degradation, Dmax and DC50. The format is cell-based. An outline of the steps:
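VCaP cells in phenol red-free RPMI with 5% charcoal-stripped FBS were grown at least 3 days, then given compound as 7 half-log doses in 0.1% DMSO with 0.1 nM R1881 for 24 h. Lysates went into a sandwich AR ELISA with TMB read at 450 nm.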

The mark [1] stands for this setting: VCaP cells; Table 36; read-out: VCaP DC50.
Where [2] appears, read: VCaP, VCaP cells; Table 36; read-out: VCaP Dmax (%).
[3] abbreviates: read-out: VCaP DC50; VCaP cells; Table 36.

On to `Cc1ncsc1-c1ccc([C@H](C)NC(=O)[C@@H]2C[C@@H](O)CN2C(=O)[C@@H](NC(=O)COCCCCCNc2ccc(C(=O)N[C@H]3C(C)(C)[C@H](Oc4ccc(C#N)c(Cl)c4)C3(C)C)nc2)C(C)C)cc1` [Example 670, N-((1r,3r)-3-(3-chloro-4-cyanophenoxy)-2,2,4,4-tetramethylcyclobutyl)-5-((5-(2-(((S)-1-((2S,4R)-4-hydroxy-2-(((S)-1-(4-(4-methylthiaozl-5-yl)phenyl)ethyl)carbam-oyl)pyrrolidin-1-yl)-3-methyl-1-oxobutan-2-yl)amino)-2-oxoethoxy)pentyl)amino) picolinamide], for which the DC50 under setting [1] was greater than 0.501 µM. Besides, the Dmax under setting [2] is less than 25%. As to `Cc1ncsc1-c1ccc(C(CO)NC(=O)C2C[C@@H](O)CN2C(=O)[C@@H](NC(=O)COCCN2CCN(c3ccc(C(=O)N[C@H]4C(C)(C)[C@H](Oc5ccc(C#N)c(Cl)c5)C4(C)C)cn3)CC2)C(C)(C)C)cc1` (stereo partly drawn) [Example 671, N-((1r,3r)-3-(3-chloro-4-cyanophenoxy)-2,2,4,4-tetramethylcyclobutyl)-6-(4-(2-(2-(((S)-1-((2S,4R)-4-hydroxy-2-((2-hydroxy-1-(4-(4-methylthiazol-5-yl)phenyl)ethyl)carbam-oyl)pyrrolidin-1-yl)-3,3-dimethyl-1-oxobutan-2-yl)amino)-2-oxoethoxy)ethyl)pipera-zin-1-yl)nicotinamide], the DC50 under setting [1] was less than 0.05 µM. In addition, the Dmax under setting [2] is greater than 71%. `Cc1ncsc1-c1ccc(CNC(=O)[C@@H]2C[C@@H](O)CN2C(=O)[C@@H](NC(=O)CN2CCC3(CC2)CCN(c2ccc(C(=O)N[C@H]4C(C)(C)[C@H](Oc5ccc(C#N)c(Cl)c5)C4(C)C)cn2)CC3)C(C)(C)C)cc1` [Example 672, N-((1r,3r)-3-(3-chloro-4-cyanophenoxy)-2,2,4,4-tetramethylcyclobutyl)-6-(9-(2-(((S)-1-((2S,4R)-4-hydroxy-2-((4-(4-methylthiazol-5-yl)benzyl)carbamoyl)pyr-rolidin-1-yl)-3,3-dimethyl-1-oxobutan-2-yl)amino)-2-oxoethyl)-3,9-diazaspiro[5.5]undecan-3-yl)nicotinamide]: the DC50 under setting [1] is less than 0.05 µM. The Dmax under setting [2] is 51 to 70%. For `C[C@H](NC(=O)[C@@H]1C[C@@H](O)CN1C(=O)[C@@H](NC(=O)COCCN1CCN(c2ccc(C(=O)N[C@H]3C(C)(C)[C@H](Oc4ccc(C#N)c(Cl)c4)C3(C)C)cn2)CC1)C(C)(C)C)c1ccc(-c2scnc2CO)cc1` [Example 673, N-((1r,3r)-3-(3-chloro-4-cyanophenoxy)-2,2,4,4-tetramethylcyclobutyl)-6-(4-(2-(2-(((S)-1-((2S,4R)-4-hydroxy-2-(((S)-1-(4-(4-(hydroxymethyl)thiazol-5-yl)phenyl)ethyl)carbam-oyl)pyrrolidin-1-yl)-3,3-dimethyl-1-oxobutan-2-yl)amino)-2-oxoethoxy)ethyl)pipera-zin-1-yl)nicotinamide], in that order: less than 0.05 µM and greater than 71%. As to `Cc1ncsc1-c1ccc([C@H](C)NC(=O)C2C[C@@H](O)CN2C(=O)[C@@H](NC(=O)CN2CCN(CCC3(c4ccc(C(=O)N[C@H]5C(C)(C)[C@H](Oc6ccc(C#N)c(C(F)(F)F)c6)C5(C)C)cc4)COC3)CC2)C(C)(C)C)cc1` (stereo partly drawn) [Example 674, (2S,4R)-1-((S)-2-(2-(4-(2-(3-(4-(((1r,3r)-3-(4-cyano-3-(trifluoromethyl)phenoxy)-2,2,4,4-tetramethylcyclobutyl)carbamoyl)phenyl)oxetan-3-yl)ethyl)piperazin-1-yl)acetamido)-3,3-dimethylbutanoyl)-4-hydroxy-N-((S)-1-(4-(4-methylthiazol-5-yl)phenyl)ethyl)pyrrolidine-2-carboxamide], under setting [1], the DC50 was less than 0.05 µM. For the setting “VCaP, read-out: VCaP Dmax (%)”, the Dmax lay within 51 to 70%. Consider `Cc1ncsc1-c1ccc([C@H](C)NC(=O)[C@@H]2C[C@@H](O)CN2C(=O)[C@@H](NC(=O)CN2CCO[C@H](CN3CCO[C@H](COc4ccc(N5C(=S)N(c6ccc(C#N)c(C(F)(F)F)c6)C(=O)C5(C)C)cc4)C3)C2)C(C)(C)C)cc1` [Example 675, (2S,4R)-1-((S)-2-(2-((R)-2-(((S)-2-((4-(3-(4-cyano-3-(trifluoromethyl)phenyl)-5,5-dimethyl-4-oxo-2-thioxoimidazolidin-1-yl)phenoxy)methyl)mor-pholino)methyl)mor-pholino)acetamido)-3,3-dimethylbutanoyl)-4-hydroxy-N-((S)-1-(4-(4-methylthiazol-5-yl)phenyl)ethyl)pyrrolidine-2-carboxamide], for which the DC50 under setting [3] is greater than 0.501 µM. On the same count and under the same terms, then `Cc1ncsc1-c1ccc([C@H](C)NC(=O)[C@@H]2C[C@@H](O)CN2C(=O)[C@@H](NC(=O)CN2CCO[C@@H](CN3CCO[C@H](COc4ccc(N5C(=O)N(c6ccc(C#N)c(C(F)(F)F)c6)C(=O)C5(C)C)cc4)C3)C2)C(C)(C)C)cc1` [Example 676, (2S,4R)-1-((S)-2-(2-((S)-2-(((S)-2-((4-(3-(4-cyano-3-(trifluoromethyl)phenyl)-5,5-dimethyl-4-oxo-2-thioxoimidazolidin-1-yl)phenoxy)methyl)mor-pholino)methyl)mor-phpolino)acetamido)-3,3-dimethylbutanoyl)-4-hydroxy-N-((S)-1-(4-(4-methylthiazol-5-yl)phenyl)ethyl)pyrrolidine-2-carboxamide], with greater than 0.501 µM; and `Cc1ncsc1-c1ccc([C@H](C)NC(=O)[C@@H]2C[C@@H](O)CN2C(=O)[C@@H](NC(=O)OCc2ccccc2)[C@@H](C)OCCCCCCOc2ccc(N3C(=O)N(c4ccc(C#N)c(C(F)(F)F)c4)C(=O)C3(C)C)cc2)cc1` [Example 677, benzyl ((2S,3R)-3-((6-(4-(3-(4-cyano-3-(trifluoromethyl)phenyl)-5,5-dimethyl-4-oxo-2-thioxoimidazolidin-1-yl)phenoxy)hexyl)oxy)-1-((2S,4R)-4-hydroxy-2-(((S)-1-(4-(4-methylthiazol-5-yl)phenyl)ethyl)carbam-oyl)pyrrolidin-1-y)-1-oxobutan-2-yl)carbamate], with greater than 0.501 µM. As to `Cc1ncsc1-c1ccc([C@H](C)NC(=O)[C@@H]2C[C@@H](O)CN2C(=O)[C@@H](NC(=O)COCCN(C)CCCc2ccc(C(=O)N[C@H]3C(C)(C)[C@H](Oc4ccc(C#N)c(Cl)c4)C3(C)C)nc2)C(C)(C)C)cc1` [Example 678, N-((1r,3r)-3-(3-chloro-4-cyanophenoxy)-2,2,4,4-tetramethylcyclobutyl)-5-(3-((2-(2-(((S)-1-((2S,4R)-4-hydroxy-2-(((S)-1-(4-(4-methylthiazol-5-yl)phenyl)ethyl)carbam-oyl)pyrrolidin-1-yl)-3,3-dimethyl-1-oxobutan-2-yl)amino)-2-oxoethoxy)ethyl)(meth-yl)amino)propyl)picolin-amide], under setting [1], the DC50 is greater than 0.501 µM. Same read-out and setting: under `Cc1ncsc1-c1ccc([C@H](C)NC(=O)[C@@H]2C[C@@H](O)CN2C(=O)[C@@H](NC(=O)C(=O)N2CCN(CCOc3ccc(C(=O)N[C@H]4C(C)(C)[C@H](Oc5ccc(C#N)c(C(F)(F)F)c5)C4(C)C)cc3)CC2)C(C)(C)C)cc1` [Example 679, (2S,4R)-1-((S)-2-(2-(4-(2-(4-(((1r,3r)-3-(4-cyano-3-(trifluoromethyl)phenoxy)-2,2,4,4-tetramethylcyclobutyl)carbamoyl)phenoxy)eth-yl)piperazin-1-yl)-2-oxoacetamido)-3,3-dimethylbutanoyl)-4-hydroxy-N-((S)-1-(4-(4-methylthiazol-5-yl)phenyl)ethyl)pyrrolidine-2-carboxamide] stands greater than 0.501 µM. Regarding `Cc1cc(O[C@H]2C(C)(C)[C@H](NC(=O)c3ccc(N4CCN(CCOCC(=O)N[C@H](C(=O)N5C[C@H](O)C[C@H]5C(=O)N[C@@H](C)c5ccc(-c6scnc6C)cc5)C(C)(C)C)CC4)nc3)C2(C)C)ccc1C#N` [Example 680, N-((1r,3r)-3-(4-cyano-3-methylphenoxy)-2,2,4,4-tetramethylcyclobutyl)-6-(4-(2-(2-(((S)-1-((2S,4R)-4-hydroxy-2-(((S)-1-(4-(4-methylthiazol-5-yl)phenyl)ethyl)carbam-oyl)pyrrolidin-1-yl)-3,3-dimethyl-1-oxobutan-2-yl)amino)-2-oxoethoxy)ethyl)pipera-zin-1-yl)nicotinamide], under setting [1], the DC50 was less than 0.05 µM. In addition, the Dmax (VCaP, read-out: VCaP Dmax (%), VCaP cells; Table 36) is greater than 71%.

The term DC50 denotes the concentration at which degradation of the target reaches its halfway point. As usually defined, the Dmax is the largest share of the target that was removed.
